Test results published in patent publication US7601756B2, “Method of treatment for irritable bowel syndrome” (Snowden Pharmaceuticals, LLC, priority 2003, dated 2009).

Assays:
[1] = test system: irritable bowel syndrome (IBS) symptoms; assay: Patient subjective evaluation of IBS symptoms before and after treatment (case studies); assay type: in vivo, human
Description: Each patient subjectively evaluated his or her symptoms both before and after treatment on a scale from 0 to 10 with 0 representing the absence of symptoms and 10 indicating the most severe symptoms. […] Patient 2 also was treated with Gemfibrozil 600 mg twice daily. […] Patient 3 was originally treated with Gemfibrozil 600 mg twice daily.

[2] = test system: HDL (high density lipoprotein) level; assay: HDL level of Patient 1 after treatment; assay type: in vivo, human; conditions: Gemfibrozil 600 mg twice a day, later testing
Description: Patient 1 suffered from a variety of conditions including diabetes, post traumatic attention deficit disorder, and irritable bowel syndrome. […] However, upon resuming the Gemfibrozil treatment, the levels were again reduced.

[3] = Patient 1, Gemfibrozil 600 mg twice a day, within a day, scale 0 to 10, before 8
[4] = Patient 2, Gemfibrozil 600 mg twice daily, after 1.5 days, scale 0 to 10, before 0
[5] = Patient 3, Gemfibrozil 600 mg twice daily, after 2 days, scale 0 to 10, before 7

## Cc1ccc(C)c(OCCCC(C)(C)C(=O)O)c1 [Gemfibrozil, 5-(2,5-dimethylphenoxy)-2,2-dimethylpentanoic acid]
[1]; Patient 1, Gemfibrozil 600 mg twice a day, within a day
  Change of evaluation of IBS symptoms: significant improvement
[1]; Patient 1, Gemfibrozil 600 mg twice a day, within a day, scale 0 to 10 (0 absence, 10 most severe), before 4
  Patient evaluation of symptoms: Gas (After): 1
[1]; Patient 1, Gemfibrozil 600 mg twice a day, within a day, scale 0 to 10, before 0
  Patient evaluation of symptoms: Constipation (After): 0
[1]; Patient 1, Gemfibrozil 600 mg twice a day, within a day, scale 0 to 10, before 6.5
  Patient evaluation of symptoms: Overall (After): 1
[1]; [3]
  Patient evaluation of symptoms: Cramps/Pain (After): 1
  Patient evaluation of symptoms: Mucus (After): 2
[1]; Patient 1, Gemfibrozil 600 mg twice a day, within a day, scale 0 to 10, before 9
  Patient evaluation of symptoms: Diarrhea (After): 1
[1]; Patient 1, Gemfibrozil treatment resumed
  IBS symptom levels upon resuming treatment: again reduced
[1]; Patient 1, use of Gemfibrozil discontinued
  IBS symptoms on discontinued use: returned to the before levels
[1]; Patient 2, Gemfibrozil 600 mg twice daily
  Side effect experienced under treatment: occasional constipation
[1]; Patient 2, Gemfibrozil 600 mg twice daily, after 1.5 days of treatment
  IBS symptoms after treatment: virtually disappeared
[1]; Patient 2, Gemfibrozil 600 mg twice daily, after 1.5 days of treatment, scale 0 to 10, before 4.5
  Patient evaluation of symptoms: Gas (After): 0
[1]; [4]
  Patient evaluation of symptoms: Constipation (After): 3
  Patient evaluation of symptoms: Mucus (After): 0
[1]; Patient 2, Gemfibrozil 600 mg twice daily, after 1.5 days, scale 0 to 10, before 5
  Patient evaluation of symptoms: Cramps/Pain (After): 0
[1]; Patient 2, Gemfibrozil 600 mg twice daily, after 1.5 days, scale 0 to 10, before 8.5
  Patient evaluation of symptoms: Diarrhea (After): 0
[1]; Patient 2, Gemfibrozil 600 mg twice daily, after 1.5 days, scale 0 to 10, before 9
  Patient evaluation of symptoms: Overall (After): 1
[1]; Patient 3, Gemfibrozil 600 mg twice daily, after 2 days of treatment
  IBS symptoms after treatment: greatly improved
[1]; Patient 3, Gemfibrozil 600 mg twice daily, after 2 days of treatment, scale 0 to 10, before 3
  Patient evaluation of symptoms: Gas (After): 1
[1]; Patient 3, Gemfibrozil 600 mg twice daily, after 2 days, scale 0 to 10, before 0
  Patient evaluation of symptoms: Constipation (After): 0
[1]; Patient 3, Gemfibrozil 600 mg twice daily, after 2 days, scale 0 to 10, before 3
  Patient evaluation of symptoms: Mucus (After): 0
[1]; [5]
  Patient evaluation of symptoms: Cramps/Pain (After): 2
  Patient evaluation of symptoms: Overall (After): 2
[1]; Patient 3, Gemfibrozil 600 mg twice daily, after 2 days, scale 0 to 10, before 9
  Patient evaluation of symptoms: Diarrhea (After): 3
[2]
  HDL level after treatment: increased

## CC(C)OC(=O)C(C)(C)Oc1ccc(C(=O)c2ccc(Cl)cc2)cc1 [micronized fenofibrate, 2-(4-(4-chlorobenzoyl)phenoxy)-2-methyl-propanoic acid 1-methyl ethyl ester]
[1]; Patient 3, micronized fenofibrate 200 mg daily, after discontinuing Gemfibrozil, scale 0 to 10
  Patient evaluation of symptoms in all categories: 0
